Results on 10 substances are retold here after patent publication US20040141992A1, “Desensitizers” (priority 2001, published 2004).

Like-named read-outs stand apart in the source and are kept apart here. No end group written: not given here.

Data set [1] has as its system cancer patients. Kind of data set: Skin test by pre-vaccination before phase I clinical trial in cancer patients.
The test system of a further data set is healthy volunteers. Kind of data set: Allergic skin test (intradermal injection, flare size) in healthy volunteers. Type of data set: in vivo, human. As to conditions: for positive skin reaction, number of cases: among 41 or 42 cases of healthy volunteers. The protocol: Therefore, it was investigated whether an allergic reaction to a peptide derived from the above self-antigen would also be observed in healthy volunteers. Skin tests were carried out with respect to self-derived tumor rejection antigen peptides capable of inducing cytotoxic T cells for 42 cases of healthy volunteers whose age ranges from 19 years old to 54 years old (mean age 29.2 years). For testing an allergic skin reaction, 10 μg of each peptide (50 μl volume) was intradermally injected, and evaluation was carried out 15 minutes after the injection. The results are summarized in Tables 1 to 4, wherein ‘NT’ and ‘S. T’ mean ‘not tested’ and ‘skin test’, respectively. −: longest diameter (D) of flare […] +: 10 mm≦D<30 mm ++: 30 mm≦D<50 mm +++: 50 mm≦D

Data set [2] has as its system cancer patients. The conditions noted are these: human, in vivo.
Data set [3] relates to skin reaction and serum IgE level against CypB84. Kind of data set: Phase I clinical trial of peptide vaccine using CypB91 in lung cancer patient. The data set is classed as in vivo, human. As to the method: The phase I clinical trial of a peptide vaccine using CypB91 was carried out on a lung cancer patient whose skin reaction and serum IgE level against CypB84 were positive in the above allergic skin test. The skin reaction and serum IgE level against CypB91 of the patient were negative. […] A skin reaction and a serum […] level against CypB91 even after 3 times administration of CypB91 were substantially the same as those before administration, i.e., negative (FIG. 1B).

In data set [4] the test system is skin reaction and serum IgE level against ART413. The conditions noted are these: human, in vivo. As to the method:
The phase I clinical trial with ART475 was carried out on an ovarian cancer patient whose skin reaction against ART413 was positive. With respect to the patient, a skin reaction against ART475 was negative, and a specific IgE level in serum against ART413 and ART475 was low. […] Namely, an allergic reaction and a specific IgE level in serum against ART413 were reduced by administration of ART475.

Data set [5] has as its system skin reaction and serum IgE level against SART3315. As to conditions: human, in vivo. The protocol: The phase I clinical test using SART3109 was carried out on a colon cancer patient whose skin reaction against SART3315 was positive. With respect to the patient, a skin reaction against SART3109 was negative, and a specific IgE level in serum against SART3315 and SART3109 was low. […] Although a SART3109-specific IgE level in serum was increased by administration of SART3109, skin reactions before and after administration of the same were negative (FIG. 1F). Namely, an allergic reaction and the specific IgE level in serum against SART3315 were reduced by administration of SART3109.

The mark [6] stands for this setting: positive donors / donors tested, healthy volunteers.

Consider AFLRHAAL [ART413, AFLRHAAL], for which the allergic skin reaction result in the data set on cancer patients [1] (ovarian cancer patients) is on record as “elicited an allergic skin reaction”. Also, the “positive skin reaction, percent of healthy volunteers” value (from here on “positive skin reaction, percent”) in the data set with healthy volunteers (healthy volunteers) was determined as 95%. Moreover, the “S. T positive rate” value in the data set on healthy volunteers (setting [6]) is 39/41.

Consider AYDFLYNYL [SART2161, AYDFLYNYL], for which the “S. T (skin test, size of inflammatory flare)” value in the data set with healthy volunteers (individual healthy donors, 10 μg peptide intradermally, evaluated 15 minutes after injection) is on record as “− (longest diameter (D) of flare <30 mm)”. Moreover, the “S. T positive rate” value in the data set with healthy volunteers (setting [6]) is on record as 0/42.

In the case of AYIDFEMKI [SART3315, AYIDFEMKI], the “positive skin reaction, number of cases” value in the data set on healthy volunteers is recorded as 18 cases. Also, the “positive skin reaction, percent” value in the data set on healthy volunteers (healthy volunteers) is 44%. Moreover, the “S. T positive rate” value with healthy volunteers (setting [6]) is on record as 18/41.

Take “CypB84F-Y: peptide obtained by partially modifying CypB84: phenylalanine (F) at the 2nd position replaced with tyrosine (Y) (KYHRVIKDF; Peptide consisting of 9 amino acid residues from the 84th residue to the 92nd residue of cyclophillin B)”: the “immediate hypersensitivity skin reactions elicited” value with cancer patients [2] is “eight of ten”.

Regarding “CypB91-2F-Y: peptide obtained by replacing phenylalanine at the 2nd position of CypB91 with tyrosine (DYMIQGGDF; Designed peptide based on the peptide consisting of 9 amino acid residues from the 91st residue to the 99th residue of cyclophillin B)”, the “inhibition of skin reaction and specific IgE level against CypB84, number of cases” value in data set [3] (among 10 cases tested, vaccination of CypB91 or CypB91-2F-Y) was determined as 9 cases.

For DFMIQGGDF [CypB91, DFMIQGGDF], the “skin reaction against CypB91” value in data set [3] (after 3 times administration of CypB91) is listed as “negative”. Further, in the data set with healthy volunteers (human, in vivo), the “S. T positive rate” value was 0/42.

Take DYPSLSATDI [ART475, DYPSLSATDI]: in data set [4], the “ART475-specific IgE level in serum” value is “gradually increased” and the “skin reaction against ART475” value is on record as “negative”. Besides, in the data set with healthy volunteers (setting [6]), the “S. T positive rate” value is reported as 1/41.

KFHRVIKDF [CypB84, KFHRVIKDF]: the “immediate hypersensitivity skin reactions elicited” value in the data set with cancer patients [1] (pre-vaccinated lung-cancer patients) is on record as “eight of ten”. Further, in the data set with healthy volunteers, the “positive skin reaction, number of cases” value worked out at 40 cases. Also, the “positive skin reaction, percent” value in the data set with healthy volunteers (healthy volunteers) is 95%. Also, the “S. T positive rate” value in the data set on healthy volunteers (setting [6]) is given as 40/42.

In the case of SYTRLFLIL [SART2899, SYTRLFLIL], the “positive skin reaction, number of cases” value with healthy volunteers amounted to 10 cases. In addition, the “positive skin reaction, percent” value with healthy volunteers (healthy volunteers) turned out to be 24%. Further, the “S. T positive rate” value in the data set with healthy volunteers (setting [6]) is on record as 10/41.

Consider VYDYNCHVDL [SART3109, VYDYNCHVDL], for which, in data set [5], the “SART3109-specific IgE level in serum” value is “increased” and the “skin reactions against SART3109” value is listed as “negative”. Moreover, the “positive skin reaction, number of cases” value with healthy volunteers is 7 cases. Besides, the “positive skin reaction, percent” value in the data set on healthy volunteers (healthy volunteers) stood at 17%. Moreover, the “S. T positive rate” value in the data set on healthy volunteers (setting [6]) is reported as 7/42.
